The results in this text go back to ChEMBL document CHEMBL1137544, “Syntheses of immunomodulating androstanes and stigmastanes: comparison of their TNF-alpha inhibitory activity” (Bioorg Med Chem, 2007).

Molecules are shown by their SMILES. The source made the active and inactive calls. The calls are words filed in the database; no cut-off is given here.

One data set concerns J774.A1. The data set can be described thus: Inhibition of LPS-induced TNFalpha production in mouse J774A.1 cells. Format: functional, cell-based.
As for `CC[C@@H](C(C)C)[C@H](O)[C@@H](O)[C@@H](C)[C@H]1CC[C@H]2[C@@H]3CC(=O)[C@@]4(O)C[C@@H](O)CC[C@]4(C)[C@H]3CC[C@]12C`, the IC50 (commonly the point on the concentration scale where inhibition reaches its midpoint) was 18 nM.

For the molecule `CC[C@@H](C(C)C)[C@H](O)[C@@H](O)[C@@H](C)[C@H]1CC[C@H]2[C@@H]3CC(=O)[C@@]4(O)C[C@@H](F)CC[C@]4(C)[C@H]3CC[C@]12C`, inhibition was half-maximal at 47 nM (IC50).

Consider `C[C@@H]1C[C@H]2[C@@H]3CCC4=CC(=O)C=C[C@]4(C)[C@@]3(F)[C@@H](O)C[C@]2(C)[C@@]1(O)C(=O)CO` [DEXAMETHASONE], for which the IC50 stood at 48 nM.

Turning to `CC[C@@H](C(C)C)[C@H](O)[C@@H](O)[C@@H](C)[C@H]1CC[C@H]2[C@@H]3CC=C4C[C@@H](Cl)CC[C@]4(C)[C@H]3CC[C@]12C`, the result was inactive.

As to `C[C@]12CC[C@H]3[C@@H](CC(=O)[C@@]4(O)C[C@@H](O)CC[C@]34C)[C@@H]1CCC2=O`, the half-inhibitory concentration (IC50) was 109 nM.

In the case of `CC[C@@H](C(C)C)[C@H](O)[C@@H](O)[C@@H](C)[C@H]1CC[C@H]2[C@@H]3CC=C4C[C@@H](O)CC[C@]4(C)[C@H]3CC[C@]12C`, the midpoint of inhibition, the IC50, lay at 35 nM.

For `C[C@]12CC[C@H]3[C@@H](CC(=O)[C@@]4(O)C[C@@H](Br)CC[C@]34C)[C@@H]1CCC(=O)O2`, the result was inactive.

Regarding `C[C@]12CC[C@H]3[C@@H](CC(=O)[C@@]4(O)C[C@@H](Br)CC[C@]34C)[C@@H]1CCC2=O`, the IC50 worked out at 134 nM.

For `C[C@]12CC[C@H](O)CC1=CC[C@@H]1[C@@H]2CC[C@]2(C)C(=O)CC[C@@H]12` [PRASTERONE], the IC50 worked out at 141 nM.

Take `CC[C@@H](C(C)C)[C@H](O)[C@@H](O)[C@@H](C)[C@H]1CC[C@H]2[C@@H]3CC(=O)[C@@]4(O)C[C@@H](Br)CC[C@]4(C)[C@H]3CC[C@]12C`: the midpoint of inhibition, the IC50, lay at 38 nM.

Regarding `CC[C@@H](C(C)C)[C@H](O)[C@@H](O)[C@@H](C)[C@H]1CC[C@H]2[C@@H]3CC=C4C[C@@H](F)CC[C@]4(C)[C@H]3CC[C@]12C`, the result was inactive.

In turn, `CC[C@@H](C(C)C)[C@H](O)[C@@H](O)[C@@H](C)[C@H]1CC[C@H]2[C@@H]3CC=C4C[C@@H](Br)CC[C@]4(C)[C@H]3CC[C@]12C` came in with an IC50 of 144 nM.

Another data set relates to J774.A1. The data set can be described thus: Cytotoxicity against mouse J774A.1 cells. Format: cell-based.
Turning to `CC[C@@H](C(C)C)[C@@H](O)[C@H](O)[C@@H](C)[C@H]1CC[C@H]2[C@@H]3CC(=O)[C@@]4(O)C[C@@H](Br)CC[C@]4(C)[C@H]3CC[C@]12C`, the Activity entry is on record as “Toxic”.

Regarding `CC[C@@H](C(C)C)[C@@H](O)[C@H](O)[C@@H](C)[C@H]1CC[C@H]2[C@@H]3CC(=O)[C@@]4(O)C[C@@H](F)CC[C@]4(C)[C@H]3CC[C@]12C`, the Activity result was “Toxic”.
